Test results reported in patent publication US7166622B2, “Substituted phenylsulfonamide inhibitors of beta amyloid production” (Wyeth, priority 2002, dated 2007).
“And” between values parts separate entries of the source, which are not always exact repeats. Equal entries are not always repeated.

Legend:
CHO-K1 cells = experiment: Toxicity in RRA (loss of luciferase signal); details: toxicity = loss of signal (<0.75 fold increase)
Method: The beta amyloid inhibitory activity of the compounds of the present invention was determined using the Repressor Release Assay (RRA).
“Fold Increase” refers to the amount of luciferase activity (measured in relative light units) over diluent control. “SEM” refers to the standard error of the mean for fold increase.

beta amyloid production = experiment: Repressor Release Assay (RRA); assay type: cell-based; details: for fold induction at 10 µg/mL / APPI Fold Increase / APPI % of Example #98: Conc 10 μg/ml; for fold induction at 10 µg/mL / APPI Fold Increase / fold induction at 20 µg/mL: luciferase activity over diluent control; for fold induction at 10 µg/mL / fold induction at 20 µg/mL: read-out: APPI Fold Increase; for APPI % of Example #98: relative to Example 98; for fold induction at 20 µg/mL: Conc 20 μg/ml
Procedure, shortened: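 CHO-K1 cells transiently co-transfected with pRSVO-luc and an APP-lacI construct, replated, then treated in duplicate for 36-48 h at 37 °C, 5% CO2. Compounds diluted in 25 mM Hepes, with Hepes/1% DMSO as diluent control. Luciferase read-out in relative light units; toxicity scored 1 non-toxic, 0 toxic.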

`CC[C@H](C)[C@H](NS(=O)(=O)c1ccc(Cl)cc1)C(C)(C)O` [Example 223, 4-chloro-N-[(1S,2S)-1-(1-hydroxy-1-methylethyl)-2-methylbutyl]benzenesulfonamide] was tested, and the “(%)APPI Toxicity” value (CHO-K1 cells; Conc 10 μg/ml) was 1 (1=non-toxic) and the fold induction at 10 µg/mL (beta amyloid production) was 2.33.
With `CCCCCCC(O)(CCCCCC)[C@@H](NS(=O)(=O)c1ccc(Cl)cc1)[C@@H](C)CC` [Example 224, 4-chloro-N-{(1S)-2-hexyl-2-hydroxy-1-[(1S)-1-methylpropyl]octyl}benzenesulfonamide] the “(%)APPI Toxicity” value (CHO-K1 cells; Conc 10 μg/ml) was 1 (1=non-toxic) and the fold induction at 10 µg/mL (beta amyloid production) was 2.22.
With `CCCCC(O)(CCCC)[C@@H](NS(=O)(=O)c1ccc(Cl)cc1)[C@@H](C)CC` [Example 225, N-{(1S)-2-butyl-2-hydroxy-1-[(1S)-1-methylpropyl]hexyl}-4-chlorobenzenesulfonamide] the “(%)APPI Toxicity” value (CHO-K1 cells; Conc 10 μg/ml) was 1 (1=non-toxic) and the fold induction at 10 µg/mL (beta amyloid production) was 6.82.
With `CC[C@H](C)[C@H](NS(=O)(=O)c1ccc(Cl)cc1)C(O)(CC(C)C)CC(C)C` [Example 226, 4-chloro-N-{(1S)-2-hydroxy-2-isobutyl-4-methyl-1-[(1S)-1-methylpropyl]pentyl}benzenesulfonamide] the “(%)APPI Toxicity” value (CHO-K1 cells; Conc 10 μg/ml) was 1 (1=non-toxic) and the fold induction at 10 µg/mL (beta amyloid production) was 4.6.
In the case of `CC[C@H](C)[C@H](NS(=O)(=O)c1ccc(Cl)cc1)C(O)(c1ccccc1)c1ccccc1` [Example 227, 4-chloro-N-{(1S,2S)-1-[hydroxy(diphenyl)methyl]-2-methylbutyl}benzenesulfonamide], the “(%)APPI Toxicity” value (CHO-K1 cells; Conc 10 μg/ml) is reported as 1 (1=non-toxic) and the fold induction at 10 µg/mL (beta amyloid production) is reported as 1.65.
`C=CCC(O)(CC=C)[C@@H](NS(=O)(=O)c1ccc(Cl)cc1)[C@@H](C)CC` [Example 228, N-{(1S)-2-allyl-2-hydroxy-1-[(1S)-1-methylpropyl]-4-pentenyl}-4-chloro benzenesulfonamide] was tested, and the “(%)APPI Toxicity” value (CHO-K1 cells; Conc 10 μg/ml) was 1 (1=non-toxic), the “APPI Fold Increase” value (beta amyloid production) was 1.56 fold and the “APPI % of Example #98” value (beta amyloid production) was 71.57%.
With `CC[C@H](C)[C@H](NS(=O)(=O)c1ccc(Cl)cc1)C(O)(CC)CC` [Example 229, 4-chloro-N-{(1S)-2-ethyl-2-hydroxy-1-[(1S)-1-methylpropyl]butyl}benzenesulfonamide] the “(%)APPI Toxicity” value (CHO-K1 cells; Conc 10 μg/ml) was 1 (1=non-toxic) and the fold induction at 10 µg/mL (beta amyloid production) was 1.52.
In the case of `C=C(C)C(O)(C(=C)C)[C@@H](NS(=O)(=O)c1ccc(Cl)cc1)[C@@H](C)CC` [Example 230, 4-chloro-N-{(1S)-2-hydroxy-2-isopropenyl-3-methyl-1-[(1S)-1-methylpropyl]-3-butenyl}benzenesulfonamide], the “(%)APPI Toxicity” value (CHO-K1 cells; Conc 10 μg/ml) is reported as 1 (1=non-toxic), the “(%)APPI Toxicity” value (CHO-K1 cells; Conc 20 μg/ml) is reported as 1 (1=non-toxic) and the fold induction at 10 µg/mL (beta amyloid production) is reported as 1.75. The fold induction at 20 µg/mL (beta amyloid production) was 1.9.
For `CC[C@H](C)[C@H](NS(=O)(=O)c1ccc(Cl)cc1)C(O)(c1ccc(OC)cc1)c1ccc(OC)cc1` [Example 231, 4-chloro-N-((1S,2 S)-1-{hydroxy [bis(4-methoxyphenyl)]methyl}-2-methylbutyl)benzenesulfonamide], the “(%)APPI Toxicity” value (CHO-K1 cells; Conc 10 μg/ml) was 1 (1=non-toxic) and the fold induction at 10 µg/mL (beta amyloid production) was 2.49.
With `C/C=C(\C)C(O)(/C(C)=C/C)[C@@H](NS(=O)(=O)c1ccc(Cl)cc1)[C@@H](C)CC` (stereo partly drawn) [Example 232, 4-chloro-N-{(1S,3E)-2-hydroxy-3-methyl-2-[(1E)-1-methyl-1-propenyl]-1-[(1S)-1-methylpropyl]-3-pentenyl}benzenesulfonamide] the “(%)APPI Toxicity” value (CHO-K1 cells; Conc 10 μg/ml) was 1 (1=non-toxic), the “(%)APPI Toxicity” value (CHO-K1 cells; Conc 20 μg/ml) was 1 (1=non-toxic) and the fold induction at 10 µg/mL (beta amyloid production) was 1.94. The fold induction at 20 µg/mL (beta amyloid production) was 4.2.
With `C=CCCC(O)(CCC=C)[C@@H](NS(=O)(=O)c1ccc(Cl)cc1)[C@@H](C)CC` [Example 233, N-{(1S)-2-(3-butenyl)-2-hydroxy-1-[(1S)-1-methylpropyl]-5-hexenyl}-4-chlorobenzenesulfonamide] the “(%)APPI Toxicity” value (CHO-K1 cells; Conc 10 μg/ml) was 1 (1=non-toxic) and the fold induction at 10 µg/mL (beta amyloid production) was 6.67.
With `CC[C@H](C)[C@H](NS(=O)(=O)c1ccc(Cl)cc1)C(O)(c1cccc2ccccc12)c1cccc2ccccc12` [Example 234, 4-chloro-N-((1S,2S)-1-{hydroxy[di(1-naphthyl)]methyl}-2-methylbutyl) benzenesulfonamide] the “(%)APPI Toxicity” value (CHO-K1 cells; Conc 10 μg/ml) was 1 (1=non-toxic) and the “APPI Fold Increase” value (beta amyloid production) was 2.9 fold and 1.6 fold.
With `CC[C@H](C)[C@H](NS(=O)(=O)c1ccc(F)cc1)C(C)(C)O` [Example 235, 4-fluoro-N-[(1S,2S)-1-(1-hydroxy-1-methylethyl)-2-methylbutyl]benzenesulfonamide] the “(%)APPI Toxicity” value (CHO-K1 cells; Conc 10 μg/ml) was 1 (1=non-toxic) and the fold induction at 10 µg/mL (beta amyloid production) was 1.88.
`CCCCCC(O)(CCCCC)[C@@H](NS(=O)(=O)c1ccc(F)cc1)[C@@H](C)CC` [Example 237, 4-fluoro-N-{(1S)-2-hydroxy-1-[(1S)-1-methylpropyl]-2-pentylheptyl}benzenesulfonamide] was tested, and the “(%)APPI Toxicity” value (CHO-K1 cells; Conc 10 μg/ml) was 1 (1=non-toxic) and the fold induction at 10 µg/mL (beta amyloid production) was 6.05.
For `CCCCC(O)(CCCC)[C@@H](NS(=O)(=O)c1ccc(F)cc1)[C@@H](C)CC` [Example 238, N-{(1S)-2-butyl-2-hydroxy-1-[(1S)-1-methylpropyl]hexyl}-4-fluorobenzenesulfonamide], the “(%)APPI Toxicity” value (CHO-K1 cells; Conc 10 μg/ml) was 1 (1=non-toxic) and the fold induction at 10 µg/mL (beta amyloid production) was 4.5.
With `CC[C@H](C)[C@H](NS(=O)(=O)c1ccc(F)cc1)C(O)(C(C)C)C(C)C` [Example 239, 4-fluoro-N-{(1S)-2-hydroxy-2-isopropyl-3-methyl-1-[(1S)-1-methylpropyl]butyl}benzenesulfonamide] the “(%)APPI Toxicity” value (CHO-K1 cells; Conc 10 μg/ml) was 1 (1=non-toxic) and the fold induction at 10 µg/mL (beta amyloid production) was 1.54.
With `CC[C@H](C)[C@H](NS(=O)(=O)c1ccc(F)cc1)C(O)(CC(C)C)CC(C)C` [Example 240, 4-fluoro-N-{(1S)-2-hydroxy-2-isobutyl-4-methyl-1-[(1S)-1-methylpropyl]pentyl}benzenesulfonamide] the “(%)APPI Toxicity” value (CHO-K1 cells; Conc 10 μg/ml) was 1 (1=non-toxic) and the fold induction at 10 µg/mL (beta amyloid production) was 3.82.
In the case of `C=CCC(O)(CC=C)[C@@H](NS(=O)(=O)c1ccc(F)cc1)[C@@H](C)CC` [Example 241, N-{(1S)-2-allyl-2-hydroxy-1-[(1S)-1-methylpropyl]-4-pentenyl}-4-fluoro benzenesulfonamide], the “(%)APPI Toxicity” value (CHO-K1 cells; Conc 10 μg/ml) is reported as 1 (1=non-toxic), the “APPI Fold Increase” value (beta amyloid production) is reported as 1.58 fold and the “APPI % of Example #98” value (beta amyloid production) is reported as 72.82%.
For `CC[C@H](C)[C@H](NS(=O)(=O)c1ccc(F)cc1)C(O)(CC)CC` [Example 242, N-{(1S)-2-ethyl-2-hydroxy-1-[(1S)-1-methylpropyl]butyl}-4-fluorobenzenesulfonamide], the “(%)APPI Toxicity” value (CHO-K1 cells; Conc 10 μg/ml) was 1 (1=non-toxic) and the fold induction at 10 µg/mL (beta amyloid production) was 1.6.
With `C=C(C)C(O)(C(=C)C)[C@@H](NS(=O)(=O)c1ccc(F)cc1)[C@@H](C)CC` [Example 243, 4-fluoro-N-{(1S)-2-hydroxy-2-isopropenyl-3-methyl-1-[(1S)-1-methylpropyl]-3-butenyl}benzenesulfonamide] the “(%)APPI Toxicity” value (CHO-K1 cells; Conc 10 μg/ml) was 1 (1=non-toxic) and the fold induction at 10 µg/mL (beta amyloid production) was 1.7.
In the case of `CC[C@H](C)[C@H](NS(=O)(=O)c1ccc(F)cc1)C(O)(c1ccc(OC)cc1)c1ccc(OC)cc1` [Example 244, 4-fluoro-N-((1S,2S)-1-{hydroxy[bis(4-methoxyphenyl)]methyl}-2-methylbutyl) benzenesulfonamide], the “(%)APPI Toxicity” value (CHO-K1 cells; Conc 10 μg/ml) is reported as 1 (1=non-toxic), the “APPI Fold Increase” value (beta amyloid production) is reported as 1.51 fold and the “APPI % of Example #98” value (beta amyloid production) is reported as 69.29%.
For `C/C=C(\C)C(O)(/C(C)=C/C)[C@@H](NS(=O)(=O)c1ccc(F)cc1)[C@@H](C)CC` (stereo partly drawn) [Example 245, 4-fluoro-N-{(1S,3E)-2-hydroxy-3-methyl-2-[(1E)-1-methyl-1-propenyl]-1-[(1S)-1-methylpropyl]-3-pentenyl}benzenesulfonamide], the “(%)APPI Toxicity” value (CHO-K1 cells; Conc 10 μg/ml) was 1 (1=non-toxic), the “(%)APPI Toxicity” value (CHO-K1 cells; Conc 20 μg/ml) was 1 (1=non-toxic) and the fold induction at 10 µg/mL (beta amyloid production) was 2.05. For the same molecule, the fold induction at 20 µg/mL (beta amyloid production) was 3.5.
In the case of `C=CCCC(O)(CCC=C)[C@@H](NS(=O)(=O)c1ccc(F)cc1)[C@@H](C)CC` [Example 246, N-{(1S)-2-(3-butenyl)-2-hydroxy-1-[(1S)-1-methylpropyl]-5-hexenyl}-4-fluorobenzenesulfonamide], the “(%)APPI Toxicity” value (CHO-K1 cells; Conc 10 μg/ml) is reported as 1 (1=non-toxic), the “(%)APPI Toxicity” value (CHO-K1 cells; Conc 20 μg/ml) is reported as 1 (1=non-toxic) and the fold induction at 10 µg/mL (beta amyloid production) is reported as 2.42. The fold induction at 20 µg/mL (beta amyloid production) was 1.9.
With `CC[C@H](C)[C@H](NS(=O)(=O)c1ccc(F)cc1)C(O)(c1ccc(N(C)C)cc1)c1ccc(N(C)C)cc1` [Example 247, N-{(1S,2S)-1-[bis[4-(dimethylamino)phenyl](hydroxy)methyl]-2-methylbutyl}-4-fluorobenzenesulfonamide] the “(%)APPI Toxicity” value (CHO-K1 cells; Conc 10 μg/ml) was 1 (1=non-toxic) and the fold induction at 10 µg/mL (beta amyloid production) was 1.54.
In the case of `CCCCCCC(O)(CCCCCC)[C@@H](NS(=O)(=O)c1cccc(Cl)c1)[C@@H](C)CC` [Example 249, 3-chloro-N-{(1S)-2-hexyl-2-hydroxy-1-[(1S)-1-methylpropyl]octyl}benzenesulfonamide], the “(%)APPI Toxicity” value (CHO-K1 cells; Conc 10 μg/ml) is reported as 1 (1=non-toxic) and the fold induction at 10 µg/mL (beta amyloid production) is reported as 1.9.
`CCCCCC(O)(CCCCC)[C@@H](NS(=O)(=O)c1cccc(Cl)c1)[C@@H](C)CC` [Example 250, 3-chloro-N-{(1S)-2-hydroxy-1-[(1S)-1-methylpropyl]-2-pentylheptyl}benzenesulfonamide] was tested, and the “(%)APPI Toxicity” value (CHO-K1 cells; Conc 10 μg/ml) was 1 (1=non-toxic) and the fold induction at 10 µg/mL (beta amyloid production) was 2.4.
`CCCCC(O)(CCCC)[C@@H](NS(=O)(=O)c1cccc(Cl)c1)[C@@H](C)CC` [Example 251, N-{(1S)-2-butyl-2-hydroxy-1-[(1S)-1-methylpropyl]hexyl}-3-chlorobenzenesulfonamide] was tested, and the “(%)APPI Toxicity” value (CHO-K1 cells; Conc 10 μg/ml) was 1 (1=non-toxic) and the fold induction at 10 µg/mL (beta amyloid production) was 3.4.
`CC[C@H](C)[C@H](NS(=O)(=O)c1cccc(Cl)c1)C(O)(CC(C)C)CC(C)C` [Example 252, 3-chloro-N-{(1S)-2-hydroxy-2-isobutyl-4-methyl-1-[(1S)-1-methylpropyl]pentyl}benzenesulfonamide] was tested, and the “(%)APPI Toxicity” value (CHO-K1 cells; Conc 10 μg/ml) was 1 (1=non-toxic) and the fold induction at 10 µg/mL (beta amyloid production) was 1.8.
